# Values of other authors in patent US20240245685A1, “PHOSPHODIESTERASE-5 INHIBITOR COMBINATIONS, METHODS OF MAKING, AND METHODS OF USE THEREOF” (VK Research Associates Inc, priority 2020, published 2024).
# Like-named read-outs stand apart in the source and are kept apart here.
# Experiments:
# [1] = for median time to maximum concentration (t max): oral administration
# [2] = oral tadalafil therapy
# [3] = not given; remark: listed apart in the source
smiles,measurement,setting,value
COc1ccc(CN=c2[nH]c(N3CCC[C@H]3CO)ncc2C(=O)NCc2ncccn2)cc1Cl [avanafil],absorption profile when administered with a high-fat meal,[1],not found
CCCc1nn(C)c2c(=O)[nH]c(-c3cc(S(=O)(=O)N4CCN(C)CC4)ccc3OCC)nc12 [sildenafil],median time to maximum concentration (t max),[1],1 h
CN1CC(=O)N2[C@H](c3ccc4c(c3)OCO4)c3[nH]c4ccccc4c3C[C@@H]2C1=O [tadalafil],Dyspepsia incidence,tadalafil 5 mg,4%
same,Headache incidence,tadalafil 5 mg,11%
same,Dyspepsia incidence,tadalafil 10 mg,8%
same,Headache incidence,tadalafil 10 mg,11%
same,Dyspepsia incidence,tadalafil 20 mg,10%
same,Headache incidence,tadalafil 20 mg,15%
same,absorption profile when administered with a high-fat meal,[1],not found
same,"duration of delayed onset side effects, e.g. gastritis and back pain",[2],up to 3 hours
same,Dyspepsia Duration,[3]; maximum doses,15.5 h
same,Dyspepsia Mean Duration,[3]; maximum doses,11.2 h
same,Headache Duration,[3]; maximum doses,24.3 h
same,Headache Mean Duration,[3]; maximum doses,17.0 h
same,duration of side effects versus sildenafil,[3]; patients taking tadalafil versus sildenafil,more prolonged
same,frequency of headache and dyspepsia versus sildenafil,[3]; tadalafil versus sildenafil,more common
CCCc1nc(C)c2c(=O)[nH]c(-c3cc(S(=O)(=O)N4CCN(CC)CC4)ccc3OCC)nn12 [vardenafil],median time to maximum concentration (t max),[1],1 h
